Results from patent publication US20250255926A1, “GINGEROL COMPOSITIONS AND RELATED METHODS” (ThermoLife International, LLC, priority 2024, published 2025).
Read-outs that look alike come from different tables or passages of the source.

Assays:
[1] = cited from earlier work
[2] = tested on: herpes simplex virus infection; assay: Herpes simplex blister outbreak in two subjects (Example 6); assay type: in vivo, human; conditions: same two subjects
Description: Two females ([…]) with a chronic herpes simplex virus infection with frequent outbreaks of blisters on their lips ingested 1000 ml of the water-soluble ginger extract produced according to Example 1 while acutely suffering from large painful blisters.
For past outbreaks, both subjects tried multiple remedies, both pharmaceutical and natural, to treat the blisters. They include Abriva®, tea tree oil, toothpaste, lysine, acyclovir, topical hydrogen peroxide, Vaseline® and Aquafor®.

Q: For CCCCC[C@H](O)CC(=O)CCc1ccc(O)c(OC)c1 [Example 6-gingerol, 6-gingerol], which “Solubility, pH 2 - HCl buffer” value ([1]; pH 2) is on record?
A: >100 μM

Q: What about the “Solubility, pH 4 - citrate buffer” value ([1]; pH 4) of the same molecule?
A: >100 μM

Q: And the “Solubility, pH 7.4 - phosphate buffer” value ([1]; pH 7.4)?
A: >100 μM

Q: For CCCCC/C=C/C(=O)CCc1ccc(O)c(OC)c1 [Example 6-shogoal, 6-shogoal], which “Solubility, pH 2 - HCl buffer” value ([1]; pH 2 HCl buffer, n = 2) is on record?
A: <10 μM

Q: And the “Solubility, pH 4 - citrate buffer” value ([1]; pH 4 citrate buffer, n = 2)?
A: <10 μM

Q: And the “Solubility, pH 7.4 - phosphate buffer” value ([1]; pH 7.4 phosphate buffer, n = 2)?
A: <10 μM

Q: Which “Solubility, pH 2 - HCl buffer” value ([1]; pH 2) does the source give for CCCCCCC[C@H](O)CC(=O)CCc1ccc(O)c(OC)c1 [Example 8-gingerol, 8-gingerol] here?
A: >100 μM

Q: And the “Solubility, pH 4 - citrate buffer” value ([1]; pH 4)?
A: >100 μM

Q: And the “Solubility, pH 7.4 - phosphate buffer” value ([1]; pH 7.4)?
A: >100 μM

Q: For CCCCCCCCC[C@H](O)CC(=O)CCc1ccc(O)c(OC)c1 [Example 10-gingerol, 10-gingerol], which “Solubility, pH 2 - HCl buffer” value ([1]; pH 2 HCl buffer, n = 2) is on record?
A: <10 μM

Q: And the “Solubility, pH 4 - citrate buffer” value ([1]; pH 4 citrate buffer, n = 2)?
A: <10 μM

Q: And the “Solubility, pH 7.4 - phosphate buffer” value ([1]; pH 7.4 phosphate buffer, n = 2)?
A: <10 μM

Q: For Nc1nc2c(ncn2COCCO)c(=O)[nH]1 [acyclovir], which “Relief or healing of blisters in past outbreaks” value (“Relief or healing of blisters” for short) [2] is on record?
A: None of those remedies provided any noticeable immediate relief or greater healing of the symptoms

Q: Which “Relief or healing of blisters” value [2] does the source give for NCCCC[C@H](N)C(=O)O [lysine] here?
A: None of those remedies provided any noticeable immediate relief or greater healing of the symptoms

Q: With OO [topical hydrogen peroxide, hydrogen peroxide] as the molecule, how does the “Relief or healing of blisters” value [2] read?
A: None of those remedies provided any noticeable immediate relief or greater healing of the symptoms
